# Data published in patent publication US20260022143A1, “Cyclic Peptide Inhibitors of IL-23” (JANSSEN PHARMACEUTICA NV, priority 2022, published 2026).
# Positions of bridges follow the written chain, without caps; N, C: chain ends. Non-standard residues stand in square brackets, D forms with d. Residues, ends and D or L forms follow the SMILES beside them. *: point of attachment. Me3N+(CH2)2O(CH2)2O(CH2)2CO = C[N+](C)(C)CCOCCOCCC(=O)*; Trp(7-Me) = Cc1cccc2c(C[C@H](N)C(=O)O)c[nH]c12; X83 = CN(CCC[N+](C)(C)CCCC[N+](C)(C)C)CC*; X9 = COCCOCCOCC[N+](C)(C)CCc1cn(CC*)nn1; CH2CH2OCH2CH2NMe3+ = C[N+](C)(C)CCOCC*; 2Nal = N[C@@H](Cc1ccc2ccccc2c1)C(=O)O; X81 = C[N+](C)(CCCC*)CC[N+]1(C)CCOCC1; AEF = NCCOc1ccc(C[C@H](N)C(=O)O)cc1; 3Pal = N[C@@H](Cc1cccnc1)C(=O)O; Lys(Me) = CNCCCC[C@H](N)C(=O)O; Pen = CC(C)(S)[C@H](N)C(=O)O; X66 = C[N+]1(CCC*)CCOCC1; Thp = NC1(C(=O)O)CCOCC1; X3 = C[N+](C)(C)CCCCC*; Sar = CNCC(=O)O
# Experiment: Exposed Polar Surface Area (EPSA)
# Format: physicochemical
# Details: SFC on Chirex 3014 column; sample 1 mM DMSO stock; read-out: EPSA
# Procedure, shortened: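 EPSA, in Å^2, is read from SFC retention time through a linear relationship established with eight calibration standards. Separation uses a Chirex 3014 stationary phase, 35 °C, 14 MPa back pressure, and a 5–60% methanol/ammonium formate modifier gradient in CO2.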
row,SMILES,EPSA [A^2]
1,"CC(=O)N(C)CCCC[C@@H]1NC(=O)[C@H](Cc2c[nH]c3c(C)cccc23)NC(=O)[C@H]([C@@H](C)O)NC(=O)[C@H](CC(=O)N(C)C)NC(=O)[C@@H](NC(=O)CCOCCOCC[N+](C)(C)C)C(C)(C)SSC(C)(C)[C@@H](C(=O)N[C@@H](Cc2ccc(OCCCC[N+](C)(C)CC[N+]3(C)CCOCC3)cc2)C(=O)N[C@@H](Cc2ccc3ccccc3c2)C(=O)NC2(C(=O)N[C@@H](CCCCN(C)C(C)=O)C(=O)N[C@@H](CC(N)=O)C(=O)N[C@@H](Cc3cccnc3)C(=O)N(C)CC(=O)N(C)C)CCOCC2)NC1=O [compound 271, cPEG3aCO-Pen(3)-N(N(Me)2)-T-7MeW-K(NMeAc)-Pen(3)-morfTMA4F-2Nal-THP-K(NMeAc)-N-3Pya-Sar-CON(Me)2] ({Me3N+(CH2)2O(CH2)2O(CH2)2CO}-[Pen]D(NMe2)T[Trp(7-Me)][Lys(Me)](Ac)[Pen]Y(X81)[2Nal][Thp][Lys(Me)](Ac)N[3Pal][Sar]-NMe2; disulfide 1-6)",159
2,"CC(=O)N(C)CCCC[C@@H]1NC(=O)[C@H](Cc2c[nH]c3c(C)cccc23)NC(=O)[C@H]([C@@H](C)O)NC(=O)[C@H](CC(=O)N(C)C)NC(=O)[C@@H](NC(=O)CCOCCOCC[N+](C)(C)C)C(C)(C)SSC(C)(C)[C@@H](C(=O)N[C@@H](Cc2ccc(OCCC[N+]3(C)CCOCC3)cc2)C(=O)N[C@@H](Cc2ccc3ccccc3c2)C(=O)NC2(C(=O)N[C@@H](CCCCN(C)C(C)=O)C(=O)N[C@@H](CC(N)=O)C(=O)N[C@@H](Cc3cccnc3)C(=O)N(C)CC(=O)N(C)C)CCOCC2)NC1=O [compound 274, cPEG3aCO-Pen(3)-N(N(Me)2)-T-7MeW-K(NMeac)-Pen(3)-MMoPF-2Nal-THP-K(NMeAc)-N-3Pya-Sar-CON(Me)2] ({Me3N+(CH2)2O(CH2)2O(CH2)2CO}-[Pen]D(NMe2)T[Trp(7-Me)][Lys(Me)](Ac)[Pen]Y(X66)[2Nal][Thp][Lys(Me)](Ac)N[3Pal][Sar]-NMe2; disulfide 1-6)",153
3,"CC(=O)N[C@@H]1C(=O)N[C@@H](CC(=O)N(C)C)C(=O)N[C@@H]([C@@H](C)O)C(=O)N[C@@H](Cc2c[nH]c3c(C)cccc23)C(=O)N[C@@H](CCCCN(C)C(C)=O)C(=O)N[C@H](C(=O)N[C@@H](Cc2ccc(OCCCCC[N+](C)(C)C)cc2)C(=O)N[C@@H](Cc2ccc3ccccc3c2)C(=O)NC2(C(=O)N[C@@H](COCCOCC[N+](C)(C)C)C(=O)N[C@@H](CC(N)=O)C(=O)N[C@@H](Cc3cccnc3)C(=O)N(C)CC(=O)N(C)C)CCOCC2)C(C)(C)SSC1(C)C [compound 275, MeCO-Pen(3)-N(N(Me)2)-T-7MeW-K(NMeAc)-Pen(3)-TMAPF-2Nal-THP-APEG2Ser-N-3Pya-Sar-CON(Me)2] (Ac-[Pen]D(NMe2)T[Trp(7-Me)][Lys(Me)](Ac)[Pen]Y(X3)[2Nal][Thp]S(CH2CH2OCH2CH2NMe3+)N[3Pal][Sar]-NMe2; disulfide 1-6)",149
4,"CC(=O)N(C)CCCC[C@@H]1NC(=O)[C@H](Cc2c[nH]c3c(C)cccc23)NC(=O)[C@H]([C@@H](C)O)NC(=O)[C@H](CC(=O)N(C)C)NC(=O)[C@@H](NC(=O)CCOCCOCC[N+](C)(C)C)C(C)(C)SSC(C)(C)[C@@H](C(=O)N[C@@H](Cc2ccc(OCCN(C)CCC[N+](C)(C)CCCC[N+](C)(C)C)cc2)C(=O)N[C@@H](Cc2ccc3ccccc3c2)C(=O)NC2(C(=O)N[C@@H](CCCCN(C)C(C)=O)C(=O)N[C@@H](CC(N)=O)C(=O)N[C@@H](Cc3cccnc3)C(=O)N(C)CC(=O)N(C)C)CCOCC2)NC1=O [compound 277, cPEG3aCO-Pen(3)-N(N(Me)2)-T-7MeW-K(NMeAc)-Pen(3)-AEF(SPD)-2Nal-THP-K(NMeAc)-N-3Pya-Sar-CON(Me)2] ({Me3N+(CH2)2O(CH2)2O(CH2)2CO}-[Pen]D(NMe2)T[Trp(7-Me)][Lys(Me)](Ac)[Pen]Y(X83)[2Nal][Thp][Lys(Me)](Ac)N[3Pal][Sar]-NMe2; disulfide 1-6)",154
5,"CC(=O)NCCCC[C@@H]1NC(=O)[C@H](Cc2c[nH]c3c(C)cccc23)NC(=O)[C@H]([C@@H](C)O)NC(=O)[C@H](CC(=O)N(C)C)NC(=O)[C@@H](NC(C)=O)C(C)(C)SSC(C)(C)[C@@H](C(=O)N[C@@H](Cc2ccc(OCCN)cc2)C(=O)N[C@@H](Cc2ccc3ccccc3c2)C(=O)NC2(C(=O)N[C@@H](CCCCNC(C)=O)C(=O)N[C@@H](CC(N)=O)C(=O)N[C@@H](Cc3cccnc3)C(=O)N(C)CC(N)=O)CCOCC2)NC1=O [compound 279, MeCO-Pen(3)-N(N(Me)2)-T-7MeW-K(Ac)-Pen(3)-AEF-2Nal-THP-K(Ac)-N-3Pya-Sar-CONH2] (Ac-[Pen]D(NMe2)T[Trp(7-Me)]K(Ac)[Pen][AEF][2Nal][Thp]K(Ac)N[3Pal][Sar]-NH2; disulfide 1-6)",163

# Second part, the molecule after the results:
row,EPSA [A^2],SMILES
1,167,CC(=O)N[C@@H]1C(=O)N[C@@H](CC(N)=O)C(=O)N[C@@H]([C@@H](C)O)C(=O)N[C@@H](Cc2c[nH]c3c(C)cccc23)C(=O)N[C@@H](CCCCN(C)C(C)=O)C(=O)N[C@H](C(=O)N[C@@H](Cc2ccc(OCCN)cc2)C(=O)N[C@@H](Cc2ccc3ccccc3c2)C(=O)NC2(C(=O)N[C@@H](CCCCN(C)C(C)=O)C(=O)N[C@@H](CC(N)=O)C(=O)N[C@@H](Cc3cccnc3)C(=O)N(C)CC(N)=O)CCOCC2)C(C)(C)SSC1(C)C [compound 280] (Ac-[Pen]NT[Trp(7-Me)][Lys(Me)](Ac)[Pen][AEF][2Nal][Thp][Lys(Me)](Ac)N[3Pal][Sar]-NH2; disulfide 1-6 (inferred))
2,163,CC(=O)NCCCC[C@@H]1NC(=O)[C@H](Cc2c[nH]c3c(C)cccc23)NC(=O)[C@H]([C@@H](C)O)NC(=O)[C@H](CC(N)=O)NC(=O)[C@@H](NC(C)=O)C(C)(C)SSC(C)(C)[C@@H](C(=O)N[C@@H](Cc2ccc(OCCN)cc2)C(=O)N[C@@H](Cc2ccc3ccccc3c2)C(=O)NC2(C(=O)N[C@@H](CCCCNC(C)=O)C(=O)N[C@@H](CC(N)=O)C(=O)N[C@@H](Cc3cccnc3)C(=O)N(C)CC(=O)N(C)C)CCOCC2)NC1=O [compound 282] (Ac-[Pen]NT[Trp(7-Me)]K(Ac)[Pen][AEF][2Nal][Thp]K(Ac)N[3Pal][Sar]-NMe2; disulfide 1-6)
3,146,"COCCOCCOCC[N+](C)(C)CCc1cn(CCOc2ccc(C[C@H](NC(=O)[C@H]3NC(=O)[C@H](CCCCN(C)C(C)=O)NC(=O)[C@H](Cc4c[nH]c5c(C)cccc45)NC(=O)[C@H]([C@@H](C)O)NC(=O)[C@H](CC(=O)N(C)C)NC(=O)[C@@H](NC(=O)CCOCCOCC[N+](C)(C)C)C(C)(C)SSC3(C)C)C(=O)N[C@@H](Cc3ccc4ccccc4c3)C(=O)NC3(C(=O)N[C@@H](CCCCN(C)C(C)=O)C(=O)N[C@@H](CC(N)=O)C(=O)N[C@@H](Cc4cccnc4)C(=O)N(C)CC(=O)N(C)C)CCOCC3)cc2)nn1 [compound 283, cPEG3aCO-Pen(3)-N(N(Me)2)-T-7MeW-K(NMeAc)-Pen(3)-Y(OTzlChmPEG3)-2Nal-THP-K(NMeAc)-N-3Pya-Sar-CON(Me)2] ({Me3N+(CH2)2O(CH2)2O(CH2)2CO}-[Pen]D(NMe2)T[Trp(7-Me)][Lys(Me)](Ac)[Pen]Y(X9)[2Nal][Thp][Lys(Me)](Ac)N[3Pal][Sar]-NMe2; disulfide 1-6)"
